Experimental data: publication PMC9916866 (International Journal of Molecular Sciences, 2023)
Like-named read-outs stand apart in the source and are kept apart here. Positions of bridges follow the written chain, without caps; N, C: chain ends. Residues, ends and D or L forms follow the SMILES beside them.

Key:
human AT2 receptor = target: T1, human AT2 receptor (Homo sapiens, UniProt P50052); experiment: biochemical; format: binding
T1 construct: expressed in transfected cells; host or cells: HEK293T
T1 sequence (P50052 1-363): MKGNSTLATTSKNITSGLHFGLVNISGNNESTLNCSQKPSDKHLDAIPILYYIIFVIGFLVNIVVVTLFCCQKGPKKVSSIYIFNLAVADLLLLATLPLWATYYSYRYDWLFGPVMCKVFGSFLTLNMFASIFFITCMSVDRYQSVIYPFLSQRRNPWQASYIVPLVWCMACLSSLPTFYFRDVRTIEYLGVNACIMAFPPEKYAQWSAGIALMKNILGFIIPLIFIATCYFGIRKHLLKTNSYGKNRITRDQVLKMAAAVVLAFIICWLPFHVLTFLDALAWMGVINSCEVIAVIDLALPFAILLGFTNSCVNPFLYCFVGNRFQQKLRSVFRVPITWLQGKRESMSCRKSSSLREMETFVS

AT1 receptor [1] = target: T2, AT1 receptor (Rattus norvegicus, UniProt P25095); experiment: biochemical; format: binding; details: read-out: inhibition of the specific labelling by Cy5-AngII, AT1
T2 sequence (P25095 whole entry, looked up): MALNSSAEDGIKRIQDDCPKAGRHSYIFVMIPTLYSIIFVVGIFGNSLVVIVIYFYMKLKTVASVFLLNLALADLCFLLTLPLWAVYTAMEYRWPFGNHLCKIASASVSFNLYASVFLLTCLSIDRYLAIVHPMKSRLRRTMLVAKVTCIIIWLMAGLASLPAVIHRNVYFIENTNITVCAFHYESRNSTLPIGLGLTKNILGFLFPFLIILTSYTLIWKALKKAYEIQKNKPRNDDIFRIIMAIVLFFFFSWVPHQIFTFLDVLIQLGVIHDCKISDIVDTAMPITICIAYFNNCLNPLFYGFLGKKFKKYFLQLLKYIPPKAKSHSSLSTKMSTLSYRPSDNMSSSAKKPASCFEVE

AT1 receptor [2] = target: T3, AT1 receptor (Homo sapiens, UniProt P30556); experiment: cell-based
T3 sequence (P30556 1-359): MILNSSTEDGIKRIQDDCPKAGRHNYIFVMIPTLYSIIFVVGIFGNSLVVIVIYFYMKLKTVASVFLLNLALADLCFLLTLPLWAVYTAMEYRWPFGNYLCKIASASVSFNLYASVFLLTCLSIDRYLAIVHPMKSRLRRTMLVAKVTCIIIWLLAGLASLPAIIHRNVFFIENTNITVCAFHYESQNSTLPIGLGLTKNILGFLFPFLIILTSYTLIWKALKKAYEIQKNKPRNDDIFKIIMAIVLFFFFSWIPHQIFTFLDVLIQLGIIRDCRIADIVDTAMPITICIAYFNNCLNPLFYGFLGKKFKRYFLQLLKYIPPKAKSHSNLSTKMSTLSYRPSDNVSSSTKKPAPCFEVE

AT1 receptor [3] = target: T2, AT1 receptor; experiment: cell-based; details: read-out: inhibition of AngII-induced ERK1/2 phosphorylation (western blot)
AT1 receptor [4] = target: T2, AT1 receptor; experiment: cell-based
AT1 receptor [5] = target: T3, AT1 receptor; experiment: cell-based; format: cell-based; set-up: expressed in transfected cells; host or cells: HEK293T
AT1 receptor [6] = target: T3, AT1 receptor; experiment: biochemical; format: binding; set-up: expressed in transfected cells; host or cells: HEK293T

CC(C)[C@@H]1NC(=O)[C@H](Cc2c[nH]c3ccccc23)NC(=O)[C@H](Cc2ccccc2)NC(=O)[C@H](Cc2c[nH]cn2)NC(=O)[C@@H](N)CSSC[C@@H](C(=O)N2CCC[C@H]2C(=O)O)NC1=O [A-CTX-cMila] (H-CHFWVCP-OH; disulfide 1-6)
Ki (human AT2 receptor): 27.5 ± 2.1 µM
inhibition at 100 µM (AT1 receptor [1]): 74%
IC50 (AT1 receptor [2]): 15.6 ± 3 µM
Kb (AT1 receptor [2]; KB, β-arrestin 2 recruitment): 4.1 ± 3.1 µM
Kb (AT1 receptor [2]; pA2, β-arrestin 2 recruitment): 2 µM
inhibition at 20 µM (AT1 receptor [3]): 89%
IC50 (AT1 receptor [4]): 23.7 ± 4.6 µM
IC50 (AT1 receptor [5]): 28.5 ± 12 µM
Ki (AT1 receptor [6]): 0.32 ± 0.13 µM
